Tests used:
Carbonic anhydrase 2 = Carbonic anhydrase 2 (Homo sapiens, UniProt P00918); test: Inhibition of human carbonic anhydrase 2 by stopped flow CO2 assay
Carbonic anhydrase 12 = Carbonic anhydrase 12 (Homo sapiens, UniProt O43570)
Description: Inhibition of human carbonic anhydrase 12 by stopped flow CO2 assay

Carbonic anhydrase 1 = Carbonic anhydrase 1 (Homo sapiens, UniProt P00915); test: Inhibition of human carbonic anhydrase 1 by stopped flow CO2 assay
Carbonic anhydrase 9 = Carbonic anhydrase 9 (Homo sapiens, UniProt Q16790); test: Inhibition of human carbonic anhydrase 9 by stopped flow CO2 assay

Chain of Carbonic anhydrase 1 (P00915 whole entry): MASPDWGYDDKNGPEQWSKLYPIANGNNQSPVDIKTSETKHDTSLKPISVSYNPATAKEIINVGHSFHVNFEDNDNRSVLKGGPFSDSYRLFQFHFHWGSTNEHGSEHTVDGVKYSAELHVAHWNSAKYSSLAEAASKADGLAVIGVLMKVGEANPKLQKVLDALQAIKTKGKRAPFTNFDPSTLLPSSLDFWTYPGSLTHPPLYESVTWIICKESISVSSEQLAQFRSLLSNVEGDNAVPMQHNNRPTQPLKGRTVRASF
Chain of Carbonic anhydrase 12 (O43570 whole entry): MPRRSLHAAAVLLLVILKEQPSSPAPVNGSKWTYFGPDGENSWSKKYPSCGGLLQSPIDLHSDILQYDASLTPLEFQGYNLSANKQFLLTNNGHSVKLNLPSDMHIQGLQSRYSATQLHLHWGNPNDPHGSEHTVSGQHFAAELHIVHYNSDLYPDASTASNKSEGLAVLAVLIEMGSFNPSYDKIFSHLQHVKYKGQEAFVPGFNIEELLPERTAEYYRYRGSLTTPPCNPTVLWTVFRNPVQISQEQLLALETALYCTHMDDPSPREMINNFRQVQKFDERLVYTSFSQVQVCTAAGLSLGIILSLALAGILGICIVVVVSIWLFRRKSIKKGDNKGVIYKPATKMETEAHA

| Compound | Ki (Carbonic anhydrase 2) [µM] | Ki (Carbonic anhydrase 12) [µM] | Ki (Carbonic anhydrase 1) [µM] | Ki (Carbonic anhydrase 9) [µM] |
| --- | --- | --- | --- | --- |
| Cn1cc(S(N)(=O)=O)c2cc(NC(=O)c3cc(-c4ccccc4)nc4ccccc34)ccc21 | > 100 | > 100 | > 100 | 82.4 |
| CCn1cc(S(N)(=O)=O)c2cc(NC(=O)c3ccnc(N)c3)ccc21 | > 100 | > 100 | > 100 | 19.8 |
| Cn1cc(S(N)(=O)=O)c2cc(NC(=O)c3cc(-c4ccc(Cl)cc4)nc4ccccc34)ccc21 |  | > 100 | > 100 | 18.5 |
| Cn1cc(S(N)(=O)=O)c2cc(NC(=O)c3ccnc(Br)c3)ccc21 | > 100 |  | > 100 | 8.16 |
| COc1ccc2nc(-c3ccccc3OC)cc(C(=O)Nc3ccc4c(c3)c(S(N)(=O)=O)cn4C)c2c1 | > 100 | > 100 | > 100 | 38.9 |
| CCn1cc(S(N)(=O)=O)c2cc(NC(=O)c3cc(-c4ccccc4)nc4ccccc34)ccc21 | > 100 | > 100 | > 100 | > 100 |
| Cn1cc(S(N)(=O)=O)c2cc(NC(=O)c3ccnc(N)c3)ccc21 | > 100 | > 100 | > 100 | 34.6 |
| CCn1cc(S(N)(=O)=O)c2cc(NC(=O)c3ccnc(Cl)c3)ccc21 |  |  | > 100 | 5.93 |
| Cn1cc(S(N)(=O)=O)c2cc(NC(=O)c3cc(Cl)nc(Br)c3)ccc21 | > 100 | > 100 | > 100 | 15.9 |
| CCn1cc(S(N)(=O)=O)c2cc(NC(=O)c3cc(-c4ccc(OC)cc4OC)nc4ccc(OC)cc34)ccc21 |  | > 100 | > 100 | 59.5 |
| CCn1cc(S(N)(=O)=O)c2cc(NC(=O)c3cc(-c4ccc(Cl)cc4Cl)nc4ccccc34)ccc21 |  |  | > 100 | 1.47 |
| COc1ccc(-c2cc(C(=O)Nc3ccc4c(c3)c(S(N)(=O)=O)cn4C)c3ccccc3n2)cc1OC | > 100 | > 100 | > 100 | 69.3 |
| Cn1cc(S(N)(=O)=O)c2cc(NC(=O)c3ccnc(O)c3)ccc21 | > 100 |  | > 100 | 9.05 |
| COc1ccc2nc(-c3ccccc3C)cc(C(=O)Nc3ccc4c(c3)c(S(N)(=O)=O)cn4C)c2c1 |  | > 100 | > 100 | 16.3 |

Further lines, results first:

| Ki (Carbonic anhydrase 2) [µM] | Ki (Carbonic anhydrase 12) [µM] | Ki (Carbonic anhydrase 1) [µM] | Ki (Carbonic anhydrase 9) [µM] | Compound |
| --- | --- | --- | --- | --- |
|  |  | > 100 | 1.57 | CCn1cc(S(N)(=O)=O)c2cc(NC(=O)c3cc(-c4ccccc4Cl)nc4ccccc34)ccc21 |
|  |  | > 100 | 5.56 | CCn1cc(S(N)(=O)=O)c2cc(NC(=O)c3cc(-c4ccc(Cl)cc4)nc4ccccc34)ccc21 |
| > 100 | > 100 | > 100 | 40.2 | CCn1cc(S(N)(=O)=O)c2cc(NC(=O)c3cc(-c4ccccc4)nc4ccc(OC)cc34)ccc21 |
| > 100 | > 100 | > 100 | 35.8 | CCn1cc(S(N)(=O)=O)c2cc(NC(=O)c3cc(-c4ccc(OC)c(OC)c4)nc4ccccc34)ccc21 |
| > 100 |  | > 100 | 5.33 | CCn1cc(S(N)(=O)=O)c2cc(NC(=O)c3ccnc(O)c3)ccc21 |
| > 100 | > 100 | > 100 | 45 | COc1ccc2nc(-c3ccccc3)cc(C(=O)Nc3ccc4c(c3)c(S(N)(=O)=O)cn4C)c2c1 |
|  |  | > 100 | 8.78 | CCn1cc(S(N)(=O)=O)c2cc(NC(=O)c3cc(Cl)nc(Br)c3)ccc21 |
|  |  | > 100 | 8.65 | CCn1cc(S(N)(=O)=O)c2cc(NC(=O)c3cc(-c4ccccc4C)nc4ccc(OC)cc34)ccc21 |
| > 100 | > 100 | > 100 | 26.7 | CCn1cc(S(N)(=O)=O)c2cc(NC(=O)c3cc(-c4ccccc4OC)nc4ccc(OC)cc34)ccc21 |
|  |  | > 100 | 7.51 | CCn1cc(S(N)(=O)=O)c2cc(NC(=O)c3cc(-c4ccc5c(c4)OCO5)nc4ccccc34)ccc21 |
| > 100 | > 100 | > 100 | 21.6 | CCn1cc(S(N)(=O)=O)c2cc(NC(=O)c3ccncc3)ccc21 |
| > 100 |  | > 100 | 5.93 | Cn1cc(S(N)(=O)=O)c2cc(NC(=O)c3ccnc(Cl)c3)ccc21 |
|  |  | > 100 | 4.23 | CCn1cc(S(N)(=O)=O)c2cc(NC(=O)c3cc(-c4cc(Cl)cc(Cl)c4)nc4ccc(OC)cc34)ccc21 |
|  |  | > 100 | 8.21 | CCn1cc(S(N)(=O)=O)c2cc(NC(=O)c3ccnc(Br)c3)ccc21 |
